Experimental findings from PubChem BioAssay (NCI) are described below.

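Five compound concentrations were applied to cells in 96-well plates for 48 hours; endpoints were derived by simple linear interpolation of the resulting dose-response curve. TGI is the concentration that stops growth completely.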

The first test has as its system LOX IMVI melanoma. Description: NCI anticancer screen, dose series, 48 h.
For the compound `CC1(C)O[C@H]2OC3CCC(=O)CC3(O)[C@H]2O1` (some centres undefined), the TGI is > 100 µM.
`Cc1cc2c(cc1C)NC1=C(N2)OC(c2c[nH]c3ccc(COc4ccccc4)cc23)C1=O` (centres undefined): the TGI is > 100 µM.
For `O=C(O)C1=NN(c2ccc(S(=O)(=O)O)cc2)C2(C1)C(Cl)C(=O)N2c1nc2ccccc2s1` (centres undefined), the TGI worked out at 12.7 µM.

The next test relates to OVCAR-8 ovarian. Description: NCI anticancer screen, dose series, 48 h.
Take `O=C1N[C@@H]2CCC[C@@H]2[C@@H]1c1ccc(Cl)cc1`: the TGI was > 100 µM.
As to `CC1(C)O[C@H]2OC3CCC(=O)CC3(O)[C@H]2O1` (some centres undefined), the TGI is > 100 µM.
Take `Cc1cc2c(cc1C)NC1=C(N2)OC(c2c[nH]c3ccc(COc4ccccc4)cc23)C1=O` (centres undefined): the TGI is > 100 µM.
`O=C(O)C1=NN(c2ccc(S(=O)(=O)O)cc2)C2(C1)C(Cl)C(=O)N2c1nc2ccccc2s1` (centres undefined): the TGI turned out to be 38.8 µM.

The test system of another test is OVCAR-4 ovarian. Kind of test: NCI anticancer screen, dose series, 48 h.
Regarding `CC1(C)O[C@H]2OC3CCC(=O)CC3(O)[C@H]2O1` (some centres undefined), the TGI is > 100 µM.
As to `Cc1cc2c(cc1C)NC1=C(N2)OC(c2c[nH]c3ccc(COc4ccccc4)cc23)C1=O` (centres undefined), the TGI is > 100 µM.
In turn, `O=C(O)C1=NN(c2ccc(S(=O)(=O)O)cc2)C2(C1)C(Cl)C(=O)N2c1nc2ccccc2s1` (centres undefined) showed a TGI of 35.3 µM.

A further test has as its system SK-OV-3 ovarian. Description: NCI anticancer screen, dose series, 48 h.
Turning to `O=C1N[C@@H]2CCC[C@@H]2[C@@H]1c1ccc(Cl)cc1`, the TGI was > 100 µM.
Regarding `CC1(C)O[C@H]2OC3CCC(=O)CC3(O)[C@H]2O1` (some centres undefined), the TGI was > 100 µM.
For the compound `Cc1cc2c(cc1C)NC1=C(N2)OC(c2c[nH]c3ccc(COc4ccccc4)cc23)C1=O` (centres undefined), the TGI is > 100 µM.
On the same count and under the same terms, the same measure for `O=C(O)C1=NN(c2ccc(S(=O)(=O)O)cc2)C2(C1)C(Cl)C(=O)N2c1nc2ccccc2s1` (centres undefined): 30.6 µM.

In the next test the test system is TK-10 renal. Kind of test: NCI anticancer screen, dose series, 48 h.
As for `O=C1N[C@@H]2CCC[C@@H]2[C@@H]1c1ccc(Cl)cc1`, the TGI was > 100 µM.
For the compound `CC1(C)O[C@H]2OC3CCC(=O)CC3(O)[C@H]2O1` (some centres undefined), the TGI is > 100 µM.
In the case of `Cc1cc2c(cc1C)NC1=C(N2)OC(c2c[nH]c3ccc(COc4ccccc4)cc23)C1=O` (centres undefined), the TGI is > 100 µM.
The compound `O=C(O)C1=NN(c2ccc(S(=O)(=O)O)cc2)C2(C1)C(Cl)C(=O)N2c1nc2ccccc2s1` (centres undefined) yielded a TGI of 33.2 µM.

The next test concerns DMS 273 small cell lung. Kind of test: NCI anticancer screen, dose series, 48 h.
`O=C1N[C@@H]2CCC[C@@H]2[C@@H]1c1ccc(Cl)cc1`: the TGI is > 100 µM.

The next test relates to HOP-62 NSCLC. Description: NCI anticancer screen, dose series, 48 h.
`CC1(C)O[C@H]2OC3CCC(=O)CC3(O)[C@H]2O1` (some centres undefined): the TGI was > 100 µM.
In turn, `Cc1cc2c(cc1C)NC1=C(N2)OC(c2c[nH]c3ccc(COc4ccccc4)cc23)C1=O` (centres undefined) showed a TGI of 49.8 µM.
Turning to `O=C(O)C1=NN(c2ccc(S(=O)(=O)O)cc2)C2(C1)C(Cl)C(=O)N2c1nc2ccccc2s1` (centres undefined), the TGI amounted to 30.5 µM.

The subject of another test is SNB-78 CNS. Description: NCI anticancer screen, dose series, 48 h.
On to `CC1(C)O[C@H]2OC3CCC(=O)CC3(O)[C@H]2O1` (some centres undefined), for which the TGI is > 100 µM.

The next test deals with NCI-H460 lung. Kind of test: NCI anticancer screen, dose series, 48 h.
Consider `CC1(C)O[C@H]2OC3CCC(=O)CC3(O)[C@H]2O1` (some centres undefined), for which the TGI was > 100 µM.
With `Cc1cc2c(cc1C)NC1=C(N2)OC(c2c[nH]c3ccc(COc4ccccc4)cc23)C1=O` (centres undefined), the TGI was > 100 µM.
`O=C(O)C1=NN(c2ccc(S(=O)(=O)O)cc2)C2(C1)C(Cl)C(=O)N2c1nc2ccccc2s1` (centres undefined) had a TGI of 33.2 µM.

Another test deals with SR leukemia. Description: NCI anticancer screen, dose series, 48 h.
For the compound `CC1(C)O[C@H]2OC3CCC(=O)CC3(O)[C@H]2O1` (some centres undefined), the TGI is > 100 µM.
Turning to `Cc1cc2c(cc1C)NC1=C(N2)OC(c2c[nH]c3ccc(COc4ccccc4)cc23)C1=O` (centres undefined), the TGI is > 100 µM.
`O=C(O)C1=NN(c2ccc(S(=O)(=O)O)cc2)C2(C1)C(Cl)C(=O)N2c1nc2ccccc2s1` (centres undefined) had a TGI of 24.5 µM.

The subject of another test is BT-549 breast. Description: NCI anticancer screen, dose series, 48 h.
`CC1(C)O[C@H]2OC3CCC(=O)CC3(O)[C@H]2O1` (some centres undefined): the TGI is > 100 µM.
For `Cc1cc2c(cc1C)NC1=C(N2)OC(c2c[nH]c3ccc(COc4ccccc4)cc23)C1=O` (centres undefined), the TGI is > 100 µM.
The compound `O=C(O)C1=NN(c2ccc(S(=O)(=O)O)cc2)C2(C1)C(Cl)C(=O)N2c1nc2ccccc2s1` (centres undefined) had a TGI of 33 µM.

Another test has as its system SF-268 CNS. Description: NCI anticancer screen, dose series, 48 h.
With `O=C1N[C@@H]2CCC[C@@H]2[C@@H]1c1ccc(Cl)cc1`, the TGI was > 100 µM.
Regarding `CC1(C)O[C@H]2OC3CCC(=O)CC3(O)[C@H]2O1` (some centres undefined), the TGI is > 100 µM.
For the compound `Cc1cc2c(cc1C)NC1=C(N2)OC(c2c[nH]c3ccc(COc4ccccc4)cc23)C1=O` (centres undefined), the TGI is > 100 µM.
In the case of `O=C(O)C1=NN(c2ccc(S(=O)(=O)O)cc2)C2(C1)C(Cl)C(=O)N2c1nc2ccccc2s1` (centres undefined), the TGI was found to be 39.8 µM.

The next test relates to SNB-75 CNS. Kind of test: NCI anticancer screen, dose series, 48 h.
For the compound `O=C1N[C@@H]2CCC[C@@H]2[C@@H]1c1ccc(Cl)cc1`, the TGI was > 100 µM.
As to `CC1(C)O[C@H]2OC3CCC(=O)CC3(O)[C@H]2O1` (some centres undefined), the TGI is > 100 µM.
Take `Cc1cc2c(cc1C)NC1=C(N2)OC(c2c[nH]c3ccc(COc4ccccc4)cc23)C1=O` (centres undefined): the TGI was 38.7 µM.
Take `O=C(O)C1=NN(c2ccc(S(=O)(=O)O)cc2)C2(C1)C(Cl)C(=O)N2c1nc2ccccc2s1` (centres undefined): the TGI came out at 30.7 µM.

Another test concerns K-562 leukemia. Description: NCI anticancer screen, dose series, 48 h.
Regarding `O=C1N[C@@H]2CCC[C@@H]2[C@@H]1c1ccc(Cl)cc1`, the TGI is > 100 µM.
Same read-out and setting: the same measure for `CC1(C)O[C@H]2OC3CCC(=O)CC3(O)[C@H]2O1` (some centres undefined): > 100 µM; for `Cc1cc2c(cc1C)NC1=C(N2)OC(c2c[nH]c3ccc(COc4ccccc4)cc23)C1=O` (centres undefined): > 100 µM.
The compound `O=C(O)C1=NN(c2ccc(S(=O)(=O)O)cc2)C2(C1)C(Cl)C(=O)N2c1nc2ccccc2s1` (centres undefined) gave a TGI of 58.5 µM.

A further test concerns M19-MEL melanoma. Kind of test: NCI anticancer screen, dose series, 48 h.
For `O=C1N[C@@H]2CCC[C@@H]2[C@@H]1c1ccc(Cl)cc1`, the TGI was > 100 µM.
For `CC1(C)O[C@H]2OC3CCC(=O)CC3(O)[C@H]2O1` (some centres undefined), the TGI was > 100 µM.

The subject of another test is UACC-257 melanoma. Kind of test: NCI anticancer screen, dose series, 48 h.
In the case of `O=C1N[C@@H]2CCC[C@@H]2[C@@H]1c1ccc(Cl)cc1`, the TGI is > 100 µM.
Take `CC1(C)O[C@H]2OC3CCC(=O)CC3(O)[C@H]2O1` (some centres undefined): the TGI is > 100 µM.
`Cc1cc2c(cc1C)NC1=C(N2)OC(c2c[nH]c3ccc(COc4ccccc4)cc23)C1=O` (centres undefined): the TGI was > 100 µM.
`O=C(O)C1=NN(c2ccc(S(=O)(=O)O)cc2)C2(C1)C(Cl)C(=O)N2c1nc2ccccc2s1` (centres undefined) yielded a TGI of 37.2 µM.

The subject of another test is MDA-N. Description: NCI anticancer screen, dose series, 48 h.
Consider `CC1(C)O[C@H]2OC3CCC(=O)CC3(O)[C@H]2O1` (some centres undefined), for which the TGI is > 100 µM.
As to `Cc1cc2c(cc1C)NC1=C(N2)OC(c2c[nH]c3ccc(COc4ccccc4)cc23)C1=O` (centres undefined), the TGI was > 100 µM.
Still for that read-out and setting: the same measure for `O=C(O)C1=NN(c2ccc(S(=O)(=O)O)cc2)C2(C1)C(Cl)C(=O)N2c1nc2ccccc2s1` (centres undefined): 53.1 µM.

The next test deals with XF 498 CNS. Description: NCI anticancer screen, dose series, 48 h.
In turn, `CC1(C)O[C@H]2OC3CCC(=O)CC3(O)[C@H]2O1` (some centres undefined) showed a TGI of 97.2 µM.
